Results taken from patent US20240018132A1, “5-HYDROXY-1,4-NAPHTHALENEDIONE FOR USE IN THE TREATMENT OF CANCER” (GODAVARI BIOREFINERIES LIMITED, priority 2020, published 2024).

Key:
MDAMB231 [1] = assay: Soft agar colony-formation assay, breast cancer; type: cell-based; conditions: for anticancer activity in comparison with cisplatin, soft agar, breast cancer cell line: FIG. 51, MDAMB231; for IC50: Homo sapiens, MDA-MB-231, 168 h, Soft Agar Assay, 1 week, Alamar Blue
Procedure, shortened: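 Cells were plated in soft agar with drug over an agar base layer and grown 1 week at 37 °C/5% CO2, with feeding on day 3. Colonies were quantified with Alamar Blue (24 h, 37 °C) by absorbance at 630 nm. Log % viability was plotted against log drug concentration.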

[2] = test system: Aldehyde dehydrogenase (ALDH); assay: Aldehyde Dehydrogenase (ALDH) assay, ELISA kit; type: cell-based; conditions: MDAMB231, 48 hrs
Source text: Aldehyde dehydrogenases (ALDH) are a family of enzymes that catalyze the metabolism of exogenous and endogenous aldehydes, preventing the accumulation of potentially reactive and toxic aldehydes and their metabolites. In addition to their role in aldehyde metabolism, ALDH enzymes also play critical roles in other cellular processes such as cell proliferation, differentiation, and survival. ALDH also serves as a marker for certain stem cell populations including hematopoietic stem cells and certain cancer stem cells. ALDH concentration was determined by using ([…] Dx) ELISA kit by following protocol: • 1 Standards (50 μl)/sample (40 μl) were added to the respective wells, (except Blank). • 2. (10 μl) Antibody-Biotin conjugate was then added in each sample well (except Blank). • 3. (50 μl) of Horse Radish Peroxidase (HRP) Conjugate was then added to each well (except Blank). • 4. The plates were incubated for one hour at 37° C. in the incubator. • 5. Wash (4 times with wash buffer) and blot residual buffer by firmly tapping the plate on the absorbent paper. Wipe off any liquid from the bottom of the microtiter wells as any residue can interfere in the reading step. • 6. Add TMB substrate A (50 μl) and then TMB substrate B (50 μl) to each well including Blank as well. • 7. Incubate for 10 mins at 37° C. in dark. • 8. Add (50 μl) stop solution. Wells should turn from blue to yellow. • 9. Read absorbance at 450 nm. • 10 A X-Y graph of concentration vs optical density was plotted. ALDH concentration was calculated by substituting optical density values in the regression analysis equation.

Human lymphocytes = assay: Lymphocyte assay (MTT on normal cells); type: cell-based; conditions: human peripheral blood lymphocytes, MTT procedure; for IC50: Lymphocyte
Experimental: Human lymphocytes were isolated from the peripheral blood. A pure population of lymphocytes was obtained based on differential centrifugation, in which diluted defibrinated blood was layered on a solution of sodium diatrizoate and polysucrose (HiSep LSM 1077) and centrifuged at low speeds for 30 mins.
Procedure: The separation of lymphocytes from fresh defibrinated blood was performed by the procedure described below: • 1. Diluted defibrinated fresh blood was overlaid gradually on (HiSeP LSM1077) and centrifuged at low speed for 30 mins. • 2. The lymphocyte layer (the buffy coat) was carefully removed in a new collection tube. • 3. The buffy coat was given another wash, by the diluent buffer Dulbecco's phosphate buffered saline (D.P.B.S) • 4. The supernatant was discarded and the pellet was resuspended in D.P.B.S. • 5. The viability of cells was checked by Haemocytometer. • 6. Cells with purity and viability of more than 95% were taken for the experiment. • 7. Purified lymphocytes were diluted at a concentration of 0.7 million/ml with sterile D.P.B.S and MTT procedure was performed exactly as described earlier.

MDAMB231 [3] = assay: In vitro antiproliferative assay (MTT assay), breast cancer cell line; type: cell-based; conditions: Homo sapiens, MDA-MB-231, 48 h, MTT assay, breast cancer MDAMB231, 48 hrs drug incubation
Procedure, shortened: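 Compound exposure lasted 48 h at 37 °C in 5% CO2, following a 24 h attachment period; DMSO stocks were 0.1 M. Metabolic reduction of MTT (0.5 mg/ml, 4 h), solubilized in DMSO, gave viability, plotted as log % viability versus log drug concentration.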

PC3 = assay: In vitro sphere-forming assay (cancer stem cells), Prostosphere media; conditions: for 3D sphere count of PC3: Prostosphere media, 2000 cells/well, n = 6 ± S.D
MDAMB231 [4] = assay: In vitro sphere-forming assay (cancer stem cells), Mammosphere media; conditions: for 3D sphere count of MDAMB231: Mammosphere media, 2000 cells/well, n = 6 ± S.D
[5] = Homo sapiens, PC-3, read-out: % Viability of spheres (PC3)
[6] = Homo sapiens, MDA-MB-231, read-out: % Viability of spheres (MDAMB231)

Compound	anticancer activity in comparison with cisplatin, soft agar, breast cancer cell line (MDAMB231 [1])	IC50 (MDAMB231 [1]) [nM]	% inhibition of ALDH on Breast Cancer Cell line (MDAMB231) after 48 hrs [2] [%]	IC50 (MDAMB231 [3]) [nM]	viability at 0.025 µM (PC3; [5]) [%]	viability at 0.25 µM (PC3; [5]) [%]	viability at 2.5 µM (PC3; [5]) [%]	viability at 25 µM (PC3; [5]) [%]	3D sphere count of PC3 (PC3; drug 0.025 uM)	3D sphere count of PC3 (PC3; drug 0.25 uM)	3D sphere count of PC3 (PC3; drug 2.5 uM)	3D sphere count of PC3 (PC3; drug 25 uM)	viability at 0.025 µM (MDAMB231 [4]; [6]) [%]	viability at 0.25 µM (MDAMB231 [4]; [6]) [%]	viability at 2.5 µM (MDAMB231 [4]; [6]) [%]	viability at 25 µM (MDAMB231 [4]; [6]) [%]	3D sphere count of MDAMB231 (MDAMB231 [4]; drug 0.025 uM)	3D sphere count of MDAMB231 (MDAMB231 [4]; drug 0.25 uM)	3D sphere count of MDAMB231 (MDAMB231 [4]; drug 2.5 uM)	3D sphere count of MDAMB231 (MDAMB231 [4]; drug 25 uM)	further results
O=C1C(NC2CCCCC2)=CC(=O)c2c(OCCN3CCOCC3)cccc21 [Formula 52]	higher anticancer activity in comparison with cisplatin	3880	74.69	3130	77	62	49	30	63(±4)	51(±3)	40(±4)	25(±3)	50	45	38	26	55(±7)	43(±3)	34(±4)	24(±3)	Activity on Lymphocytes (IC50) (Human lymphocytes): No activity; viability at 0.0025 µM (PC3; [5]): 87%; 3D sphere count of PC3 (PC3; drug 0.0025 uM): 71(±3); viability at 0.0025 µM (MDAMB231 [4]; [6]): 62%; 3D sphere count of MDAMB231 (MDAMB231 [4]; drug 0.0025 uM): 69(±3)
O=C1C(c2ccc3c(c2)OCO3)=CC(=O)c2c(OCCCCN3CCOCC3)cccc21 [Formula 2, 5-(4-morpholinobutoxy)-2-(benzo[d][1,3]dioxol-6-yl)naphthalene-1,4-dione]	higher anticancer activity in comparison with cisplatin	2080	76.09	566	77	65	39	21	63(±4)	53(±3)	32(±4)	17(±3)	84	66	46	30	65(±5)	51(±3)	36(±3)	23(±3)	IC50 (Human lymphocytes): 11.5 µM; viability at 250 µM (PC3; [5]): 10%; 3D sphere count of PC3 (PC3; drug 250 uM): 8(±2); viability at 250 µM (MDAMB231 [4]; [6]): 14%; 3D sphere count of MDAMB231 (MDAMB231 [4]; drug 250 uM): 11(±3)
COc1ccc(NC2=CC(=O)c3c(OCCN4CCOCC4)cccc3C2=O)cc1OC [Formula 40, 5-(2-morpholinoethoxy)-2-(3,4-dimethoxyphenylamino) naphthalene-1,4-dione]	higher anticancer activity in comparison with cisplatin	353	62.73	951	65	47	34	17	57(±3)	41(±3)	30(±3)	15(±3)	56	41 ± 4	27	10	43(±3)	32(±4)	21(±3)	8(±2)	IC50 (Human lymphocytes): 13.2 µM; viability at 0.0025 µM (PC3; [5]): 80%; 3D sphere count of PC3 (PC3; drug 0.0025 uM): 70(±5); viability at 0.0025 µM (MDAMB231 [4]; [6]): 78%; 3D sphere count of MDAMB231 (MDAMB231 [4]; drug 0.0025 uM): 60(±3)
